Article PMC3191281 (2011)

Biological target: T1, CK1α (casein kinase Iα) (Homo sapiens, UniProt P48729)
T1 sequence (P48729 2-337): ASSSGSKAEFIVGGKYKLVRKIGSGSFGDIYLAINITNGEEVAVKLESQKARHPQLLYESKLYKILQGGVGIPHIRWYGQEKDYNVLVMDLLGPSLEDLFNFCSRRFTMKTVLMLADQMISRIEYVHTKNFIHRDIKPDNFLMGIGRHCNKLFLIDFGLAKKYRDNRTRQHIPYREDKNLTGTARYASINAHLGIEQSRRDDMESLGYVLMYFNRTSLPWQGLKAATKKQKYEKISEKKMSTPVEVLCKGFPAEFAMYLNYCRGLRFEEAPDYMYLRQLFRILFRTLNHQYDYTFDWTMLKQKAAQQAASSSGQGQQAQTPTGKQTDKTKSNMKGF
Assay: TR-FRET
Assay type: biochemical

CCCCCc1cc(/C=C2/N=C(c3ccc[nH]3)C=C2OC)[nH]c1C [NSC 47147]
IC50: 6 µM
